In patent US9695155B2, “Herbicidal substituted pyrimidinyloxy benzene compounds” (E. I. DU PONT DE NEMOURS AND COMPANY, priority 2013, dated 2017):

What was measured:
[1] = test system: morningglory; assay: Test A preemergence; format: in vivo, Ipomoea spp.
Procedure, shortened: (§1)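 Compounds in non-phytotoxic solvent with surfactant applied as soil spray preemergence, or postemergence to plants 2-10 cm at one- to two-leaf stage, in loam/sand. After approximately 10 days in greenhouse, injury rated visually versus untreated controls, 0 (no effect) to 100 (complete control).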

[2] = test system: corn; assay: Test A preemergence; format: in vivo, Zea mays; conditions: Zea mays, pre-emergence, 240 h, 0 to 100 scale where 0 is no effect and 100 is complete control
Procedure, shortened: as §1

[3] = test system: barnyardgrass; assay: Test A postemergence; format: in vivo, Echinochloa crus-galli; conditions: Echinochloa crus-galli, post-emergence, 240 h, 0 to 100 scale where 0 is no effect and 100 is complete control
Procedure, shortened: as §1

[4] = test system: sedge, umbrella; assay: Test B flooded paddy test; format: in vivo, Cyperus difformis; conditions: Cyperus difformis, Flood, 250 g ai/ha; 0 to 100 scale where 0 is no effect and 100 is complete control; read-out: Plant response rating, Sedge, Umbrella
Procedure, shortened: (§2)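 Flooded to 3 cm at the 2-leaf stage, pots received compound through the paddy water and were kept at that depth under greenhouse conditions. After 13–15 days, effect was rated by eye relative to controls, 0 = none and 100 = complete control.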

[5] = test system: barnyardgrass; assay: Test B flooded paddy test; format: in vivo, Echinochloa crus-galli; conditions: Echinochloa crus-galli; Flood, 250 g ai/ha; 0 to 100 scale where 0 is no effect and 100 is complete control; read-out: Plant response rating, Barnyardgrass
Procedure, shortened: as §2

[6] = test system: corn; assay: Test C preemergence; format: in vivo, Zea mays; conditions: Zea mays, pre-emergence
Procedure, shortened: (§3)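 Whole-plant greenhouse test with surfactant-containing solvent formulation, applied preemergence to sown loam–sand pots or postemergence to 2–18 cm plants. Scored by eye 13 to 15 days on, 0–100 scale.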

[7] = test system: giant foxtail; assay: Test C preemergence; format: in vivo, Setaria faberii; conditions: Setaria faberi, pre-emergence
Procedure, shortened: as §3

[8] = test system: Italian ryegrass; assay: Test C postemergence; format: in vivo, Lolium multiflorum
Procedure, shortened: as §3

[9] = test system: johnsongrass; assay: Test C postemergence; format: in vivo, Sorghum halepense
Procedure, shortened: as §3

[10] = test system: yellow nutsedge; assay: Test C postemergence; format: in vivo, Cyperus esculentus
Procedure, shortened: as §3

[11] = test system: pigweed; assay: Test C postemergence; format: in vivo, Amaranthus retroflexus
Procedure, shortened: as §3

[12] = test system: barnyardgrass; assay: Test C postemergence; format: in vivo, Echinochloa crus-galli; conditions: Echinochloa crus-galli, post-emergence
Procedure, shortened: as §3

[13] = test system: waterhemp; assay: Test C postemergence; format: in vivo, Amaranthus rudis
Procedure, shortened: as §3

[14] = test system: wild oat; assay: Test C postemergence; format: in vivo, Avena fatua
Procedure, shortened: as §3

[15] = test system: velvetleaf; assay: Test C postemergence; format: in vivo, Abutilon theophrasti
Procedure, shortened: as §3

[16] = 31 g ai/ha, postemergence, visual rating, scale 0 to 100 (0 no effect, 100 complete control), 13 to 15 days

In the case of `FC(F)(F)c1cn(-c2ccccc2Oc2ncc(Cl)cn2)nn1` [Compound 166, 5-chloro-2-[2-[4-(trifluoromethyl)-1H-1,2,3-triazol-1-yl]phenoxy]pyrimidine], the “Morningglory plant response rating (0 to 100 scale)” value ([1]; 125 g ai/ha) is reported as 100, the pest or weed control at 500 g/ha ([1]; Ipomoea, pre-emergence, 240 h, 500 g ai/ha, 0 to 100 scale where 0 is no effect and 100 is complete control, read-out: Morningglory plant response rating) is reported as 100% and the Corn plant response rating (crop injury, 0 = no effect, 100 = complete kill) at 125 g/ha ([2]; 125 g ai/ha) is reported as 30%. The plant injury at 500 g/ha ([2]; 500 g ai/ha, read-out: Corn plant response rating) was 30%, the pest or weed control at 125 g/ha ([3]; 125 g ai/ha, read-out: Barnyardgrass plant response rating) was 90% and the pest or weed control at 500 g/ha ([3]; 500 g ai/ha, read-out: Plant response rating, Barnyardgrass) was 100%. The pest or weed control at 250 g/ha [4] was 95%, the pest or weed control at 250 g/ha [5] was 60% and the plant injury at 16 g/ha ([6]; 16 g ai/ha, preemergence, scale 0 to 100 (0 no effect, 100 complete control), read-out: Corn plant response rating) was 0%. The plant injury at 62 g/ha ([6]; 62 g ai/ha, preemergence, scale 0 (no effect) to 100 (complete control), read-out: Corn plant response rating) was 40%, the plant injury at 125 g/ha ([6]; 125 g ai/ha, preemergence, scale 0 (no effect) to 100 (complete control), read-out: Corn plant response rating) was 80% and the Corn plant response rating (crop injury, 0 = no effect, 100 = complete kill) at 31 g/ha ([6]; Preemergence, 31 g ai/ha, scale 0 to 100, 0 no effect, 100 complete control) was 25%. The pest or weed control at 16 g/ha ([7]; 16 g ai/ha, preemergence, scale 0 to 100 (0 no effect, 100 complete control), read-out: Foxtail, Giant plant response rating) was 100%, the pest or weed control at 62 g/ha ([7]; 62 g ai/ha, preemergence, scale 0 (no effect) to 100 (complete control), read-out: Foxtail, Giant plant response rating) was 100% and the pest or weed control at 125 g/ha ([7]; 125 g ai/ha, preemergence, scale 0 (no effect) to 100 (complete control), read-out: Foxtail, Giant plant response rating) was 100%. For the same compound, the pest or weed control at 31 g/ha ([7]; Preemergence, 31 g ai/ha, scale 0 to 100, 0 no effect, 100 complete control, read-out: Plant response rating, Foxtail, Giant) was 100%, the “Ryegrass, Italian plant response rating” value [8, 16] was 5 and the pest or weed control at 16 g/ha ([8]; Lolium multiflorum, post-emergence, 16 g ai/ha, postemergence, 0 is no effect, 100 is complete control, read-out: Plant response rating (0 to 100), Ryegrass, Italian) was 0%. The pest or weed control at 125 g/ha ([8]; Lolium multiflorum, post-emergence, 125 g ai/ha, postemergence, visual rating, scale 0 to 100 (0 no effect, 100 complete control), read-out: Plant response rating, Ryegrass, Italian) was 30%, the pest or weed control at 62 g/ha ([8]; Lolium multiflorum, post-emergence, Postemergence, 62 g ai/ha, scale 0 to 100 (0 no effect, 100 complete control), read-out: Plant response rating, Ryegrass, Italian) was 15% and the “Johnsongrass plant response rating” value [9, 16] was 5. It also gave a pest or weed control at 16 g/ha ([9]; Sorghum halepense, post-emergence, 16 g ai/ha, postemergence, 0 is no effect, 100 is complete control, read-out: Plant response rating (0 to 100), Johnsongrass) of 5%, a pest or weed control at 125 g/ha ([9]; Sorghum halepense, post-emergence, 125 g ai/ha, postemergence, visual rating, scale 0 to 100 (0 no effect, 100 complete control), read-out: Plant response rating, Johnsongrass) of 5% and a pest or weed control at 62 g/ha ([9]; Sorghum halepense, post-emergence, Postemergence, 62 g ai/ha, scale 0 to 100 (0 no effect, 100 complete control), read-out: Plant response rating, Johnsongrass) of 5%. The “Nutsedge, Yellow plant response rating” value [10, 16] was 5, the pest or weed control at 16 g/ha ([10]; Cyperus, post-emergence, 16 g ai/ha, postemergence, 0 is no effect, 100 is complete control, read-out: Plant response rating (0 to 100), Nutsedge, Yellow) was 0% and the pest or weed control at 125 g/ha ([10]; Cyperus, post-emergence, 125 g ai/ha, postemergence, visual rating, scale 0 to 100 (0 no effect, 100 complete control), read-out: Plant response rating, Nutsedge, Yellow) was 5%. The pest or weed control at 62 g/ha ([10]; Cyperus, post-emergence, Postemergence, 62 g ai/ha, scale 0 to 100 (0 no effect, 100 complete control), read-out: Plant response rating, Nutsedge, Yellow) was 5%, the “Pigweed plant response rating” value [11, 16] was 85 and the pest or weed control at 16 g/ha ([11]; Amaranthus retroflexus, post-emergence, 16 g ai/ha, postemergence, 0 is no effect, 100 is complete control, read-out: Plant response rating (0 to 100), Pigweed) was 80%. The pest or weed control at 125 g/ha ([11]; Amaranthus retroflexus, post-emergence, 125 g ai/ha, postemergence, visual rating, scale 0 to 100 (0 no effect, 100 complete control), read-out: Plant response rating, Pigweed) was 98%, the pest or weed control at 62 g/ha ([11]; Amaranthus retroflexus, post-emergence, Postemergence, 62 g ai/ha, scale 0 to 100 (0 no effect, 100 complete control), read-out: Plant response rating, Pigweed) was 90% and the pest or weed control at 16 g/ha ([12]; 16 g ai/ha, postemergence, 0 is no effect, 100 is complete control, read-out: Plant response rating (0 to 100), Barnyardgrass) was 5%. The pest or weed control at 31 g/ha ([12]; 31 g ai/ha, postemergence, visual rating, scale 0 to 100 (0 no effect, 100 complete control), 13 to 15 days, read-out: Barnyardgrass plant response rating) was 10%, the pest or weed control at 125 g/ha ([12]; 125 g ai/ha, postemergence, visual rating, scale 0 to 100 (0 no effect, 100 complete control), read-out: Plant response rating, Barnyardgrass) was 15% and the pest or weed control at 62 g/ha ([12]; Postemergence, 62 g ai/ha, scale 0 to 100 (0 no effect, 100 complete control), read-out: Plant response rating, Barnyardgrass) was 10%. For the same compound, the “Waterhemp plant response rating” value [13, 16] was 85, the pest or weed control at 16 g/ha ([13]; Amaranthus tuberculatus, post-emergence, 16 g ai/ha, postemergence, 0 is no effect, 100 is complete control, read-out: Plant response rating (0 to 100), Waterhemp) was 75% and the pest or weed control at 125 g/ha ([13]; Amaranthus tuberculatus, post-emergence, 125 g ai/ha, postemergence, visual rating, scale 0 to 100 (0 no effect, 100 complete control), read-out: Plant response rating, Waterhemp) was 90%. The pest or weed control at 62 g/ha ([13]; Amaranthus tuberculatus, post-emergence, Postemergence, 62 g ai/ha, scale 0 to 100 (0 no effect, 100 complete control), read-out: Plant response rating, Waterhemp) was 90%, the “Oat, Wild plant response rating” value [14, 16] was 10 and the pest or weed control at 16 g/ha ([14]; Avena fatua, post-emergence, 16 g ai/ha, postemergence, 0 is no effect, 100 is complete control, read-out: Plant response rating (0 to 100), Oat, Wild) was 5%. For the same compound, the pest or weed control at 125 g/ha ([14]; Avena fatua, post-emergence, 125 g ai/ha, postemergence, visual rating, scale 0 to 100 (0 no effect, 100 complete control), read-out: Plant response rating, Oat, Wild) was 50%, the pest or weed control at 62 g/ha ([14]; Avena fatua, post-emergence, Postemergence, 62 g ai/ha, scale 0 to 100 (0 no effect, 100 complete control), read-out: Plant response rating, Oat, Wild) was 35% and the “Velvetleaf plant response rating” value [15, 16] was 55. For the same compound, the pest or weed control at 16 g/ha ([15]; Abutilon theophrasti, post-emergence, 16 g ai/ha, postemergence, 0 is no effect, 100 is complete control, read-out: Plant response rating (0 to 100), Velvetleaf) was 45%, the pest or weed control at 125 g/ha ([15]; Abutilon theophrasti, post-emergence, 125 g ai/ha, postemergence, visual rating, scale 0 to 100 (0 no effect, 100 complete control), read-out: Plant response rating, Velvetleaf) was 85% and the pest or weed control at 62 g/ha ([15]; Abutilon theophrasti, post-emergence, Postemergence, 62 g ai/ha, scale 0 to 100 (0 no effect, 100 complete control), read-out: Plant response rating, Velvetleaf) was 80%.
